Data: ChEMBL document CHEMBL1144329, “De novo design, synthesis, and in vitro activity of LFA-1 antagonists based on a bicyclic[5.5]hydantoin scaffold” (Bioorg Med Chem Lett, 2005)

Target: Intercellular adhesion molecule (ICAM-1), Integrin alpha-L/beta-2 (Homo sapiens, UniProt P05107+P20701)
Test: Inhibitory concentration against leukocyte function-associated antigen-1 in HSB-2 human lymphoblast and H1HeLa cell adhesion assay
Type: functional, cell-based, H1-HeLa

Intercellular adhesion molecule (ICAM-1), Integrin alpha-L/beta-2, sequence (P20701 whole entry): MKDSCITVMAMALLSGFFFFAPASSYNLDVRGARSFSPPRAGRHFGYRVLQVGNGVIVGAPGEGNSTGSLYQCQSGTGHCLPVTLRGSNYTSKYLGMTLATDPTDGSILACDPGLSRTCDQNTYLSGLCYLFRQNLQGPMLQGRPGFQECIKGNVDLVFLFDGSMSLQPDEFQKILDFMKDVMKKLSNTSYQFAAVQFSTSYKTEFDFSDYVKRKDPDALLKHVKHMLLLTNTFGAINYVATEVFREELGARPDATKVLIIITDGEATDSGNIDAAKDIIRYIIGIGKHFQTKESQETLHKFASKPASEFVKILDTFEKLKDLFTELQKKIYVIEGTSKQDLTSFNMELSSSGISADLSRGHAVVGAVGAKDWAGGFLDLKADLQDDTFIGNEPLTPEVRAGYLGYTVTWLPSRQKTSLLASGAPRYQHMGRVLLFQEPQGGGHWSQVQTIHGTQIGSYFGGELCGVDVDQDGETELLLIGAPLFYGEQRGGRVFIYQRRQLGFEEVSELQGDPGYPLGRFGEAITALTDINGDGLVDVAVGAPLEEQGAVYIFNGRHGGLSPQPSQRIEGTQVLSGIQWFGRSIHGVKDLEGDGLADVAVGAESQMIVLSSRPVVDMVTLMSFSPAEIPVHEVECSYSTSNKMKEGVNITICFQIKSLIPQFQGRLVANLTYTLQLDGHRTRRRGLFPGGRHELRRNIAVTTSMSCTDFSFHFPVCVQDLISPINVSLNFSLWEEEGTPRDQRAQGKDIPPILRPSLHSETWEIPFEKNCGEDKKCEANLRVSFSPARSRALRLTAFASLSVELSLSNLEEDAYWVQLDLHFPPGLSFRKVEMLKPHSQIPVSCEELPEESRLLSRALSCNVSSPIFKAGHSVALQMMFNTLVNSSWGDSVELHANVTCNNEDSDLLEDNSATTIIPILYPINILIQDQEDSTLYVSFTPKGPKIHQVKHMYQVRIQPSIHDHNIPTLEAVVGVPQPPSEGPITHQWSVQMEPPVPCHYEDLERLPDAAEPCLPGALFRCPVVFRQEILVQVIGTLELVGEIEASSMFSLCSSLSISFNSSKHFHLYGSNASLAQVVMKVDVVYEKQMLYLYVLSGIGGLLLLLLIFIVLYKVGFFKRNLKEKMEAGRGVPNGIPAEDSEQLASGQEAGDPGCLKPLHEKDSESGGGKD
Intercellular adhesion molecule (ICAM-1), Integrin alpha-L/beta-2, sequence (P05362 whole entry, further chain): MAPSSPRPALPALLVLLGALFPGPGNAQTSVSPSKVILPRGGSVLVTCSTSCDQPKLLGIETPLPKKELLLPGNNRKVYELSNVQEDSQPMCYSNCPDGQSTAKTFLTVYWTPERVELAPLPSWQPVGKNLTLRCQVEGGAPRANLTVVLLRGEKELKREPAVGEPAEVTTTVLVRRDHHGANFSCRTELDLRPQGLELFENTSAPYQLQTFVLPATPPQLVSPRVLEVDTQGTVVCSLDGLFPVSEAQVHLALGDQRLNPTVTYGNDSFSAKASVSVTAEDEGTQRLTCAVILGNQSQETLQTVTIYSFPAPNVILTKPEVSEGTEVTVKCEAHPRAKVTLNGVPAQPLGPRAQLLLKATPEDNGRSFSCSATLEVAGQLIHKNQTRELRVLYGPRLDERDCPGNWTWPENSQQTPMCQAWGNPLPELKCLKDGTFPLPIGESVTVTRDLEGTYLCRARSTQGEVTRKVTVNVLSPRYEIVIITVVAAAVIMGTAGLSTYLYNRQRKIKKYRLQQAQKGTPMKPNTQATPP
Intercellular adhesion molecule (ICAM-1), Integrin alpha-L/beta-2, sequence (P05107 whole entry): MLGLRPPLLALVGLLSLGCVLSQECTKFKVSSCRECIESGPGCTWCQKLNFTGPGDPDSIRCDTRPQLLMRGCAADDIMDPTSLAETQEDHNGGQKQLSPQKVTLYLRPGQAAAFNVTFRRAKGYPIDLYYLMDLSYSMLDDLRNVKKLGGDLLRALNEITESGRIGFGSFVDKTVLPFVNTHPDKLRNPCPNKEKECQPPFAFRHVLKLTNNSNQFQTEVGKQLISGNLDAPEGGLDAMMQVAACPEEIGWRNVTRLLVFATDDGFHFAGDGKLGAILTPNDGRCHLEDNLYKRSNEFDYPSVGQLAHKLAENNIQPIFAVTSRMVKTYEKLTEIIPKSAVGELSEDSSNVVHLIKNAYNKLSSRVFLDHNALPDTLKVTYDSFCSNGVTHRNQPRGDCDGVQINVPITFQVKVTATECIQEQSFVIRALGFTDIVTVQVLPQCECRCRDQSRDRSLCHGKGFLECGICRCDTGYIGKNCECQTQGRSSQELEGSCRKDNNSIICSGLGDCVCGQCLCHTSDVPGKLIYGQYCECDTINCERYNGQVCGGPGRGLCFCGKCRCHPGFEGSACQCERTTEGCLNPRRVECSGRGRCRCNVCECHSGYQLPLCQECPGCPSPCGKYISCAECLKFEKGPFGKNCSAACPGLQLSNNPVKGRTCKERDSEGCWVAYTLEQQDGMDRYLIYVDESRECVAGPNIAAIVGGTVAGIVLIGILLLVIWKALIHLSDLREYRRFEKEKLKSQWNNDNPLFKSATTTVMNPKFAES

Structure (SMILES)	IC50 [nM]
O=C1[C@H]2C[C@@H](OCc3cccc(-c4ccc(Cl)cc4)c3)CN2C(=O)N1c1cc(Cl)cc(Cl)c1	620
O=C1[C@@H]2C[C@H](SCc3cccc(-c4ccc(Br)cc4)c3)CN2C(=O)N1c1cc(Cl)cc(Cl)c1	290
CCN(Cc1cccc(-c2ccc(C#N)cc2)c1)[C@H]1C[C@H]2C(=O)N(c3cc(Cl)cc(Cl)c3)C(=O)N2C1	730
O=C1[C@@H]2C[C@H](OCc3cccc(-c4ccc(Br)cc4)c3)CN2C(=O)N1c1cc(Cl)cc(Cl)c1	85
O=C1[C@@H]2C[C@H](OCc3cccc(-c4cccc(Br)c4)c3)CN2C(=O)N1c1cc(Cl)cc(Cl)c1	755
N#Cc1ccc(-c2cccc(CO[C@H]3C[C@H]4C(=O)N(c5cc(Cl)cc(Cl)c5)C(=O)N4C3)c2)cc1	270
O=C1[C@@H]2C[C@@H](OCc3cccc(-c4ccc(Br)cc4)c3)CN2C(=O)N1c1cc(Cl)cc(Cl)c1	935
O=C1[C@@H]2C[C@H](Oc3ccc(-c4ccc(Br)cc4)cc3)CN2C(=O)N1c1cc(Cl)cc(Cl)c1	480
CN(Cc1cccc(-c2ccc(Br)cc2)c1)[C@H]1C[C@H]2C(=O)N(c3cc(Cl)cc(Cl)c3)C(=O)N2C1	175
O=C1[C@H]2C[C@@H](OCc3cccc(-c4ccc(Br)cc4)c3)CN2C(=O)N1c1cc(Cl)cc(Cl)c1	275
N#Cc1ccc(-c2cccc(CN[C@H]3C[C@H]4C(=O)N(c5cc(Cl)cc(Cl)c5)C(=O)N4C3)c2)cc1	175
